Kd and IC50 data for two molecules are collected here from paper PMC3528830 (ACS chemical biology, 2012).

In one assay the target is tRNA. As to the kind of experiment: RNA binding assay. The settings on record: read-out: tRNA Kd. Further details: species or system yeast.
The target in a further assay is r(CUG)12×2. The conditions noted are these: read-out: r(CUG)12×2 Kd; data taken from a previous report; cited from earlier work.
The subject of a further assay is r(CUG)10-MBNL1 complex. The experiment in a line: qTR-FRET assay, disruption of pre-formed r. The assay is classed as biochemical. The conditions noted are these: read-out: IC50 for r(CUG)-MBNL1, pre-formed r(CUG)10-MBNL1 complex, displacement.

Consider `NC1C(O)[C@H](OC2[C@H](N)CC(N)[C@@H](O[C@H]3OC(CNC(=O)CCCc4cn(CCCNC(=S)Nc5ccc(-c6c7ccc(=O)cc-7oc7cc(O)ccc67)c(C(=O)O)c5)nn4)[C@@H](O)[C@H](O)C3O)[C@@H]2O)OC(CO)[C@@H]1O` (stereo partly shown) [FITC-K], for which the dissociation constant Kd on tRNA was > 10000 nM; at r(CUG)12×2, 1000 ± 250 nM. In addition, the concentration for half-maximal inhibition (IC50) in the assay on r(CUG)10-MBNL1 complex is > 250000 nM.

B1: MBNL1: muscleblind-like 1 protein, RNA splicing regulator (protein, UniProt Q9NR56 1-388, looked up)
Muscleblind-like protein 1: MAVSVTPIRDTKWLTLEVCREFQRGTCSRPDTECKFAHPSKSCQVENGRVIACFDSLKGRCSRENCKYLHPPPHLKTQLEINGRNNLIQQKNMAMLAQQMQLANAMMPGAPLQPVPMFSVAPSLATNASAAAFNPYLGPVSPSLVPAEILPTAPMLVTGNPGVPVPAAAAAAAQKLMRTDRLEVCREYQRGNCNRGENDCRFAHPADSTMIDTNDNTVTVCMDYIKGRCSREKCKYFHPPAHLQAKIKAAQYQVNQAAAAQAAATAAAMTQSAVKSLKRPLEATFDLGIPQAVLPPLPKRPALEKTNGATAVFNTGIFQYQQALANMQLQQHTAFLPPVPMVHGATPATVSAATTSATSVPFAATATANQIPIISAEHLTSHKYVTQM
Turning to B1, on r(CUG)12×2, the dissociation constant Kd is 250 nM.
